Reference: patent US12661364B2, “Remedy for hair growth enhancing” (GURUS BIOPHARM INC., priority 2019, dated 2026)

Key:
[1] = Stability of the cosmetic composition during accelerated storage at room temperature (HPLC content of the combination's components); type: physicochemical; conditions: for Stability / content in the cosmetic composition during accelerated storage (in words): room temperature, 20 degrees above the recommended +4 to +8° C.; for Prostaglandin F2 content, % (as % to the initial one): +25-27° C., measurement error 5%
Procedure: The cosmetic composition for stimulation of hair growth (example of composition 1 according to the invention, see above) was held at +25-27° C. for 2 months. Samples were taken every week and analyzed for the content of the components of the combination by HPLC. To prepare a sample for analysis, 1 g of gel was taken from the cosmetic composition into a round-bottom glass centrifuge tube and 2 g of distilled ethyl acetate were added. The mixture was shaken on a Multi-Vortex V32 until the liquids were completely mixed for 3 min. The resulting suspension was centrifuged for 5 min at 6000 rpm for complete separation of the layers. The upper layer (ethyl acetate layer) was carefully removed with a glass pipette and transferred to a conical-bottom flask (V25 mL). Another 2 g of distilled ethyl acetate were added to the solution remaining in the test tube, and the extraction procedure was repeated once again. The upper layer (ethyl acetate layer) was carefully removed with a glass pipette and added to the previously collected solution. The organic layer was evaporated on a rotary evaporator and dried in an oil pump vacuum. The residue was dissolved in ethanol to obtain a solution with an ethanol concentration of 26 mg/100 μL. The extract was analyzed by microcolumn reversed-phase HPLC in an acetonitrile-water gradient system (linear gradient, 5→100% acetonitrile). The components of the combination of the invention were identified by comparison with reference standards. The quantity of each component was estimated by the signal area in the chromatogram.

scalp hair growth = conditions: 0.1% latanoprost applied to the scalp, after 24 weeks; cited from earlier work

With `CCCCC[C@H](O)/C=C/[C@H]1[C@H](O)CC(=O)[C@@H]1C/C=C\CCCC(=O)OC(CO[N+](=O)[O-])CO[N+](=O)[O-]` [(Z)-1,3-bis(nitroxy)propanyl-2-7-((1R,2R,3R)-3-hydroxy-2-((S,E)-3-hydroxyoctene-1-yl-1)-5-oxocyclopentenyl)-5-heptenoate] the “Stability / content in the cosmetic composition during accelerated storage (in words)” value (“Stability / content” below) [1] was “decreases over time”.

For `CC(C)OC(=O)CCC/C=C\C[C@@H]1[C@@H](CC[C@@H](O)CCc2ccccc2)[C@H](O)C[C@@H]1O` [latanoprost], the “Hair density (terminal and vellus hair)” value (scalp hair growth) is given as “significant increase in hair density”.

With `CCCCC[C@H](O)/C=C/[C@H]1[C@H](O)CC(=O)[C@@H]1CCCCCCC(=O)OC(CO[N+](=O)[O-])CO[N+](=O)[O-]` [E1, (Z)-1,3-bis(nitroxy)propan-2-yl-7-((1R,2R,3R)-3-hydroxy-2-((S,E)-3-hydroxyoct-1-en-1-yl)-5-xocyclopentyl)heptanoate] the “Stability / content” value [1] was “decreases over time”.

With `CCCCC[C@H](O)/C=C/[C@@H]1[C@@H](C/C=C\CCCC(=O)N[C@H](CO)C(=O)OC(C)C)[C@@H](O)C[C@H]1O` [modified prostaglandin F2] the “Prostaglandin F2 content, % (as % to the initial one)” value (shortened to “Prostaglandin F2 content, %”) ([1]; hold time 0 weeks, cosmetic composition for stimulation of hair growth) was 100%, the “Prostaglandin F2 content, %” value ([1]; hold time 1 week) was 100% and the “Prostaglandin F2 content, %” value ([1]; hold time 2 weeks) was 100%. For the same molecule, the “Prostaglandin F2 content, %” value ([1]; hold time 3 weeks) was 99%, the “Prostaglandin F2 content, %” value ([1]; hold time 4 weeks) was 99% and the “Prostaglandin F2 content, %” value ([1]; hold time 5 weeks) was 98%. The “Prostaglandin F2 content, %” value ([1]; hold time 6 weeks) was 98% and the “Stability / content” value [1] was “decreases very slowly”.
